Biological target: T1, prolidase (Sus scrofa, UniProt A0A5G2QQV1)
T1 construct: Purified porcine kidney prolidase and purified porcine kidney aminopeptidase M was obtained from Sigma; purchased Sigma (St. Louis, Mo.); host or cells: porcine kidney
T1 sequence (A0A5G2QQV1 1-463): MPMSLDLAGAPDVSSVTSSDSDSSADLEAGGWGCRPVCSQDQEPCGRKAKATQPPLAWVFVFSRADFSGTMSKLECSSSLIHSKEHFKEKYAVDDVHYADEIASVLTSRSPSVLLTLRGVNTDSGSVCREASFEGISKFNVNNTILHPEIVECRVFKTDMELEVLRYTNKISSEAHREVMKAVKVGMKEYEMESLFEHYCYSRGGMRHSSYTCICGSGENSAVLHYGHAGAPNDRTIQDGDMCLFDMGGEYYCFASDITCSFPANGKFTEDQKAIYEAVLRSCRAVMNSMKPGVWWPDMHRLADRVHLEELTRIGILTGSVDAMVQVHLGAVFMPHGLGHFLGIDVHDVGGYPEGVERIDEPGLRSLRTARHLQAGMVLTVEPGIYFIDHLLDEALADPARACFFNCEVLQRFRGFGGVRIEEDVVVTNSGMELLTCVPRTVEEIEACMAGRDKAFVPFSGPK
Assay: Specificity of apstatin: prolidase
Type: biochemical
Conditions: purified, porcine kidney; Arg-Pro, pH 8.0, HPLC-2
Excerpt: Enzymes--Membrane-bound aminopeptidase P was purified to homogeneity from bovine lung (14) and from rat lung. Partially purified membrane-bound aminopeptidase P from human lung was obtained by treatment of lung microsomes with phosphatidylinositol-specific phospholipase C (B. thuringiensis) (ICN, Costa Mesa, Calif.) followed by centrifugation as described previously (14). Membrane dipeptidase was purified from rat lung microsomes (manuscript in preparation). Recombinant E. coli aminopeptidase P (22) and purified lamb kidney prolyl oligopeptidase (23) were generally supplied by Dr. Tadashi Yoshimoto (Nagasaki University). Purified porcine kidney prolidase and purified porcine kidney aminopeptidase M was obtained from Sigma (St. Louis, Mo.).
Specificity of Apstatin--Apstatin was assayed for its ability to inhibit several other peptidases. […] Unless otherwise indicated, the source of each enzyme activity was a detergent extract of bovine lung prepared as described in (12-13). Activities were determined by a modification of the fluorescent assay described above (indicated by "FLUO") or by HPLC separation and quantitation of reaction products using the method described in (12) (method "HPLC-1") or the method described below (method "HPLC-2"). […]

C[C@H](NC(=O)[C@@H]1CCCN1C(=O)[C@@H]1CCCN1C(=O)[C@@H](O)[C@H](N)Cc1ccccc1)C(N)=O [apstatin, N-[(2S, 3R)-3-amino-2-hydroxy-4-phenylbutanoyl]-L-prolyl-L-prolyl-Lalaninamide]
IC50: 4.9 µM

Reference: patent US5656603A (Loyola University of Chicago, priority 1995, dated 1997)
